From patent publication US9346812B2, “Substituted pyrrolopyrimidine compounds, compositions thereof, and methods of treatment therewith” (Signal Pharmaceutical LLC, priority 2013, dated 2016) come the findings set out here.

In this experiment the test system is CAL51 cell proliferation. Nature of the experiment: Cell Titer Glo Proliferation Assay (CAL51). The conditions noted are these: Homo sapiens, CAL-51; CAL51 cell proliferation, 72 h, Cell Titer Glo luminescence; read-out: Act. Level. It counts as cell-based, human. In short, it runs like this:
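Viability is measured by CellTiter-Glo luminescence after 72 h of compound exposure. CAL51 cells were seeded in growth medium with 10% FBS and 2 mM glutamine, cultured overnight, then dosed with compound dilutions, vehicle held at 0.2% DMSO.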

Each structure is given as a SMILES string.

Take `CNC(=O)c1ccc(Nc2nc(OC3CCOCC3)c3c(-c4ccc(S(C)(=O)=O)cc4)c[nH]c3n2)c(C)c1` [Example 158, N,3-dimethyl-4-(5-(4-(methylsulfonyl)phenyl)-4-(tetrahydro-2H-pyran-4-yloxy)-7H-pyrrolo[2,3-d]pyrimidin-2-ylamino)benzamide]: the IC50 was 400 to 1000 nM.
For the molecule `COc1cc(-n2cccn2)ccc1Nc1nc(OC2CCCC2)c2c(-c3ccc4nc(C)oc4c3)c[nH]c2n1` [Example 228, 4-(cyclopentyloxy)-N-(2-methoxy-4-(1H-pyrazol-1-yl)phenyl)-5-(2-methylbenzo[d]oxazol-6-yl)-7H-pyrrolo[2,3-d]pyrimidin-2-amine], the IC50 lay within 100 to 400 nM.
The figure for `Cc1cc(C(=O)N(C)C)ccc1Nc1nc(OC2CCOCC2)c2c(-c3nnco3)c[nH]c2n1` [Example 111, 4-(5-(1,3,4-oxadiazol-2-yl)-4-(tetrahydro-2H-pyran-4-yloxy)-7H-pyrrolo[2,3-d]pyrimidin-2-ylamino)-N,N,3-trimethylbenzamide] is 1000 to 10000 nM.
As to `CNC(=O)c1ccc(Nc2nc(OC)c3c(-c4cn[nH]c4)c[nH]c3n2)c(OC)c1` [Example 129, 3-methoxy-4-(4-methoxy-5-(1H-pyrazol-4-yl)-7H-pyrrolo[2,3-d]pyrimidin-2-ylamino)-N-methylbenzamide], the IC50 lay in the range of 100 to 400 nM.
Turning to `COc1cc(C(=O)NCCN(C)C)ccc1Nc1nc(OC2CCOCC2)c2c(-c3ccc4nc(C)oc4c3)c[nH]c2n1` [Example 127, N-(2-(dimethylamino)ethyl)-3-methoxy-4-(5-(2-methylbenzo[d]oxazol-6-yl)-4-(tetrahydro-2H-pyran-4-yloxy)-7H-pyrrolo[2,3-d]pyrimidin-2-ylamino)benzamide], the IC50 was below 100 nM.
The figure for `CNC(=O)c1ccc(Nc2nc(OC3CCCC3)c3c(-c4cccc(NS(C)(=O)=O)c4)c[nH]c3n2)c(OC)c1` [Example 57, 4-(4-(cyclopentyloxy)-5-(3-(methylsulfonamido)phenyl)-7H-pyrrolo[2,3-d]pyrimidin-2-ylamino)-3-methoxy-N-methylbenzamide] is 100 to 400 nM.
As for `CCOc1ccc(-c2c[nH]c3nc(Nc4ccc(C(=O)NC)cc4OC)nc(O[C@H]4CCOC4)c23)cn1` [Example 161, (S)-4-(5-(6-ethoxypyridin-3-yl)-4-(tetrahydrofuran-3-yloxy)-7H-pyrrolo[2,3-d]pyrimidin-2-ylamino)-3-methoxy-N-methylbenzamide], the figure is 100 to 400 nM.
As for `COCCNC(=O)c1ccc(Nc2nc(OC3CCOCC3)c3c(-c4ccc5nc(C)oc5c4)c[nH]c3n2)c(OC)c1` [Example 120, 3-methoxy-N-(2-methoxyethyl)-4-(5-(2-methylbenzo[d]oxazol-6-yl)-4-(tetrahydro-2H-pyran-4-yloxy)-7H-pyrrolo[2,3-d]pyrimidin-2-ylamino)benzamide], the figure is below 100 nM; as for `CNC(=O)c1ccc(Nc2nc(OC3CCOCC3)c3c(-c4ccc5nc(C)oc5c4)c[nH]c3n2)c(OC)c1` [Example 90, 3-methoxy-N-methyl-4-(5-(2-methylbenzo[d]oxazol-6-yl)-4-(tetrahydro-2H-pyran-4-yloxy)-7H-pyrrolo[2,3-d]pyrimidin-2-ylamino)benzamide], below 100 nM.
As for `COc1cc(C(=O)N[C@@H](C)CO)ccc1Nc1nc(OC2CCCC2)c2c(-c3ccc4nc(C)oc4c3)c[nH]c2n1` [Example 215, (S)-4-(4-(cyclopentyloxy)-5-(2-methylbenzo[d]oxazol-6-yl)-7H-pyrrolo[2,3-d]pyrimidin-2-ylamino)-N-(1-hydroxypropan-2-yl)-3-methoxybenzamide], the IC50 is below 100 nM.
As for `COc1cc(C(=O)N(C)C)ccc1Nc1nc(OC2CCCC2)c2c(-c3ccc4nc(C)oc4c3)c[nH]c2n1` [Example 91, 4-(4-(cyclopentyloxy)-5-(2-methylbenzo[d]oxazol-6-yl)-7H-pyrrolo[2,3-d]pyrimidin-2-ylamino)-3-methoxy-N,N-dimethylbenzamide], the figure is 100 to 400 nM.
As for `CNC(=O)c1cc(OC)c(Nc2nc(OC3CCCC3)c3c(-c4ccc5nc(C)oc5c4)c[nH]c3n2)cn1` [Example 280, 5-(4-(cyclopentyloxy)-5-(2-methylbenzo[d]oxazol-6-yl)-7H-pyrrolo[2,3-d]pyrimidin-2-ylamino)-4-methoxy-N-methylpicolinamide], the figure is below 100 nM.
In the case of `COc1cc(C(=O)N(C)CCCO)ccc1Nc1nc(OC2CCCC2)c2c(-c3ccc4nc(C)oc4c3)c[nH]c2n1` [Example 283], the IC50 was below 100 nM.
As for `Cc1cc(C(=O)N(C)C)ccc1Nc1nc(OC2CCOCC2)c2c(-c3ncco3)c[nH]c2n1` [Example 115, N,N,3-trimethyl-4-(5-(oxazol-2-yl)-4-(tetrahydro-2H-pyran-4-yloxy)-7H-pyrrolo[2,3-d]pyrimidin-2-ylamino)benzamide], the figure is 400 to 1000 nM.
As for `CNC(=O)c1ccc(Nc2nc(OC3CCCC3)c3c(-c4ccc(NC(N)=O)cc4)c[nH]c3n2)c(OC)c1` [Example 39, 4-(4-(cyclopentyloxy)-5-(4-ureidophenyl)-7H-pyrrolo[2,3-d]pyrimidin-2-ylamino)-3-methoxy-N-methylbenzamide], the figure is below 100 nM; as for `CNC(=O)c1ccc(Nc2nc(NC3CC3)c3c(-c4ccc5nc(C)oc5c4)c[nH]c3n2)c(OC)c1` [Example 212, 4-(4-(cyclopropylamino)-5-(2-methylbenzo[d]oxazol-6-yl)-7H-pyrrolo[2,3-d]pyrimidin-2-ylamino)-3-methoxy-N-methylbenzamide], 100 to 400 nM; as for `CNC(=O)c1ccc(Nc2nc(OC3CCCC3)c3c(-c4ccc5nc(C)oc5c4)c[nH]c3n2)c(C)c1` [Example 94, 4-(4-(cyclopentyloxy)-5-(2-methylbenzo[d]oxazol-6-yl)-7H-pyrrolo[2,3-d]pyrimidin-2-ylamino)-N,3-dimethylbenzamide], 400 to 1000 nM.
The figure for `Cc1nc2ccc(-c3c[nH]c4nc(Nc5ccc6c(c5)CNC6=O)nc(OC5CCCC5)c34)cc2o1` [Example 235, 5-(4-(cyclopentyloxy)-5-(2-methylbenzo[d]oxazol-6-yl)-7H-pyrrolo[2,3-d]pyrimidin-2-ylamino)isoindolin-1-one] is below 100 nM.
Regarding `COc1cc(-c2cnn(C)c2)ccc1Nc1nc(OC2CCCC2)c2c(-c3ccc4nc(C)oc4c3)c[nH]c2n1` [Example 227, 4-(cyclopentyloxy)-N-(2-methoxy-4-(1-methyl-1H-pyrazol-4-yl)phenyl)-5-(2-methylbenzo[d]oxazol-6-yl)-7H-pyrrolo[2,3-d] pyrimidin-2-amine], the IC50 was 100 to 400 nM.
As to `CNC(=O)c1ccc(OC)c(Nc2nc(OC(C)C)c3c(-c4ccc5nc(C)oc5c4)c[nH]c3n2)c1` [Example 180, 3-(4-isopropoxy-5-(2-methylbenzo[d]oxazol-6-yl)-7H-pyrrolo[2,3-d]pyrimidin-2-ylamino)-4-methoxy-N-methylbenzamide], the IC50 lay in the range of 100 to 400 nM.
As for `CNC(=O)c1ccc(Nc2nc(OC3CCCC3)c3c(-c4ccc(NC(C)=O)cc4)c[nH]c3n2)c(OC)c1` [Example 62, 4-(5-(4-acetamidophenyl)-4-(cyclopentyloxy)-7H-pyrrolo[2,3-d]pyrimidin-2-ylamino)-3-methoxy-N-methylbenzamide], the figure is below 100 nM; as for `CNC(=O)c1ccc(Nc2nc(OC3CCOCC3)c3c(-c4cncnc4)c[nH]c3n2)c(OC)c1` [Example 154, 3-methoxy-N-methyl-4-(5-(pyrimidin-5-yl)-4-(tetrahydro-2H-pyran-4-yloxy)-7H-pyrrolo[2,3-d]pyrimidin-2-ylamino) benzamide], 100 to 400 nM; as for `CNC(=O)c1ccc(Nc2nc(OC3CCOCC3)c3c(-c4ccc(-c5nccn5C)cc4)c[nH]c3n2)c(OC)c1` [Example 195, 3-methoxy-N-methyl-4-(5-(4-(1-methyl-1H-imidazol-2-yl)phenyl)-4-(tetrahydro-2H-pyran-4-yloxy)-7H-pyrrolo[2,3-d]pyrimidin-2-ylamino)benzamide], 1000 to 10000 nM.
As for `CNC(=O)c1ccc(Nc2nc(OC3CCOCC3)c3c(-c4ccnc(NC)c4)c[nH]c3n2)c(OC)c1` [Example 155, 3-methoxy-N-methyl-4-(5-(2-(methylamino)pyridin-4-yl)-4-(tetrahydro-2H-pyran-4-yloxy)-7H-pyrrolo[2,3-d]pyrimidin-2-ylamino)benzamide], the figure is below 100 nM.
The figure for `Cc1nc2ccc(-c3c[nH]c4nc(Nc5nn(C)cc5C)nc(OC5CCCC5)c34)cc2o1` [Example 297, 4-(cyclopentyloxy)-N-(1,4-dimethyl-1H-pyrazol-3-yl)-5-(2-methylbenzo[d]oxazol-6-yl)-7H-pyrrolo[2,3-d]pyrimidin-2-amine] is 1000 to 10000 nM.
For `COc1cc(C(=O)N(C)C2CCOCC2)ccc1Nc1nc(OC2CCCC2)c2c(-c3ccc4nc(C)oc4c3)c[nH]c2n1` [Example 250, 4-(4-(cyclopentyloxy)-5-(2-methylbenzo[d]oxazol-6-yl)-7H-pyrrolo[2,3-d]pyrimidin-2-ylamino)-3-methoxy-N-methyl-N-(tetrahydro-2H-pyran-4-yl)benzamide], the IC50 fell in the range of 100 to 400 nM.
